As usually defined, the IC50 is the point on the concentration scale where inhibition reaches its midpoint. Read a high IC50 as weaker potency in that assay.

Converted amounts (≈) assume the structure as drawn.

IC50 data for 3 compounds are collected here from ChEMBL document CHEMBL1158304, “New Oxygenated Cephalotaxus Alkaloids from Cephalotaxus harringtonia var. drupacea” (J Nat Prod, 1996).

For this experiment, the system named is P388. Put plainly: Cytotoxicity against mouse P388 cells. The class given is functional, cell-based.
In turn, `COC(=O)C[C@](O)(CCCC(C)C)C(=O)O[C@@H]1C(OC)=C[C@]23CCCN2C[C@@H](O)c2cc4c(cc2[C@H]13)OCO4` displayed an IC50 of 0.38 µg/mL (≈ 0.696 µM).

`COC(=O)C[C@](O)(CCCC(C)C)C(=O)O[C@@H]1C(OC)=C[C@]23CCCN2C[C@H](O)c2cc4c(cc2[C@H]13)OCO4` yielded an IC50 of 0.33 µg/mL (≈ 0.605 µM). Compound `COC(=O)C[C@](O)(CCC(C)C)C(=O)O[C@@H]1C(OC)=C[C@]23CCCN2C[C@H](O)c2cc4c(cc2[C@H]13)OCO4` showed a concentration for half-maximal inhibition (IC50) of 0.17 µg/mL (≈ 0.32 µM).
